# According to paper PMC11249953, “c-KIT inhibitors reduce pathology and improve behavior in the Tg(SwDI) model of Alzheimer’s disease” (Life Science Alliance, 2024):
# Values joined by “and” are separate entries in the source; they are usually repeats but may differ in a detail not shown here. Equal entries are not always repeated.
# Key:
# mice = test: Elevated plus maze, source data sheets EPM (mouse line not given); assay type: in vivo
# Procedure: The elevated plus maze was performed using a standard set up, with two enclosed arms and two open arms. Mice were placed at the intersection of the open and closed arms and allowed to freely explore for 5 min, two times. Time spent in the open and closed arms and number of entries into the open and closed arms were recorded.
# TgAPP mice = test: Morris water maze, TgAPP mice; assay type: in vivo, mouse; set-up: Platform Distance: unit not given beside the values; Total Distance / Quad Time / Quad Distance / Trial 1 D4 / Trial 1 D4 AVG: unit not given here
# Procedure: The Morris water maze was performed using a water bath 6 ft in diameter and filled with roughly 1 ft of water. The maze was divided into four quadrants, each with a visual stimulus positioned on the wall of the maze in the center of the quadrant arc. A clear platform was placed in one quadrant just beneath the surface of the water. Mice were then placed in a random non-platform quadrant and allowed to swim freely for 60 s (time was stopped and recorded if the mouse found the platform) before being placed on the platform for 15 s and returned to their cage. This was repeated for each of the three quadrants each day for 4 d. On the 5th d, the platform was removed and mice were placed in the quadrant opposite of where the platform had been and allowed to swim freely for 1 min before being returned to their cage. Time spent in the correct quadrant, latency to the platform, number of platform entries, and number of quadrant entries were recorded.
# [1] = Totals (Trial 1 + Trial 2), individual animals, listed as 197
# [2] = Trial 1, individual animals, listed as 197
# [3] = Trial 2, individual animals, listed as 197
# [4] = elevated plus maze, trial 1 + trial 2, one value per mouse, listed as 197
# [5] = elevated plus maze, trial 1, one value per mouse, listed as 197
# [6] = elevated plus maze, trial 2, one value per mouse, listed as 197
# [7] = MWM Probe, single animal values, listed as 197
# [8] = MWM Probe, single animal values, listed as 197, in s (unit assumed)
# [9] = MWM training, Day 1, single animal values, listed as 197
# [10] = MWM training, Day 2, single animal values, listed as 197
# [11] = MWM training, Day 3, single animal values, listed as 197
# [12] = MWM training, Day 4, single animal values, listed as 197
structure (smiles),measurement,setting,value
Cc1cccc(-c2cc3nccc(N4CCOCC4)c3s2)c1 [BK40197],Closed Entries,mice; [1],13 and 8 and 4 and 2 and 14 and 3 and 9
same,Open Entries,mice; [1],8 and 9 and 7 and 13 and 15 and 5 and 10
same,Time Closed,"mice; Totals (Trial 1 + Trial 2), individual animals, listed as 197, in s",299 and 472 and 180 and 74 and 440 and 274 and 198 and 409
same,Time Open,"mice; Totals (Trial 1 + Trial 2), individual animals, listed as 197, in s (unit assumed)",301 and 128 and 420 and 526 and 160 and 326 and 402 and 191
same,Closed Entries AVG,"mice; Totals, group average",8.25
same,Open Entries AVG,"mice; Totals, group average",9.5
same,Time Closed AVG,"mice; Totals, group average, in s",293.25
same,Time Open AVG,"mice; Totals, group average, in s",306.75
same,Closed Entries AVG,"mice; Trial 1, group average",3.75
same,Open Entries AVG,"mice; Trial 1, group average",6.5
same,Time Closed AVG,"mice; Trial 1, group average, in s",86.375
same,Time Open AVG,"mice; Trial 1, group average, in s",213.625
same,Closed Entries,mice; [2],3 and 4 and 1 and 8 and 0 and 7
same,Open Entries,mice; [2],5 and 6 and 8 and 4 and 11 and 1 and 9
same,Time Closed,"mice; Trial 1, individual animals, listed as 197, in s",60 and 208 and 48 and 55 and 163 and 41 and 0 and 116
same,Time Open,"mice; Trial 1, individual animals, listed as 197, in s (unit assumed)",240 and 92 and 252 and 245 and 137 and 259 and 300 and 184
same,Closed Entries AVG,"mice; Trial 2, group average",4.5
same,Open Entries AVG,"mice; Trial 2, group average",3
same,Time Closed AVG,"mice; Trial 2, group average, in s",206.875
same,Time Open AVG,"mice; Trial 2, group average, in s",93.125
same,Closed Entries,mice; [3],10 and 4 and 1 and 5 and 3 and 2
same,Open Entries,mice; [3],3 and 1 and 2 and 7 and 4
same,Time Closed,"mice; Trial 2, individual animals, listed as 197, in s",239 and 264 and 132 and 19 and 277 and 233 and 198 and 293
same,Time Open,"mice; Trial 2, individual animals, listed as 197, in s (unit assumed)",61 and 36 and 168 and 281 and 23 and 67 and 102 and 7
same,Time/Entry AVG,"mice; elevated plus maze, group average",8.7983
same,Open Entries AVG,"mice; elevated plus maze, group average of totals",14.5714
same,Time Open AVG,"mice; elevated plus maze, group average of totals, in s",96.8
same,Time/Entry,"mice; elevated plus maze, total time open / total open entries, one value per mouse, listed as 197",3.925 and 5.671 and 12.2 and 2.561 and 11.6778 and 13.5375 and 12.015
same,Open Entries,"mice; elevated plus maze, totals listed by treatment group, one value per mouse, listed as 197",12 and 7 and 2 and 44 and 9 and 8 and 20
same,Totals Closed Entries,mice; [4],22 and 15 and 11 and 38 and 10 and 3 and 12
same,Totals Open Entries,mice; [4],9 and 8 and 20 and 12 and 7 and 2 and 44
same,Totals Time Open,"mice; elevated plus maze, trial 1 + trial 2, one value per mouse, listed as 197, in s",105.1 and 108.3 and 240.3 and 47.1 and 39.7 and 24.4 and 112.7
same,Totals Time Closed,"mice; elevated plus maze, trial 1 + trial 2, one value per mouse, listed as 197, in s (unit assumed)",346 and 410.7 and 291.7 and 404.6 and 493.6 and 547.6 and 346.3
same,Trial 1 Closed Entries,mice; [5],17 and 7 and 6 and 31 and 5 and 2 and 8
same,Trial 1 Open Entries,mice; [5],6 and 8 and 12 and 10 and 1 and 15
same,Trial 1 Time Closed,"mice; elevated plus maze, trial 1, one value per mouse, listed as 197, in s (unit assumed)",123.7 and 123.9 and 82.1 and 166.6 and 229.4 and 269.8 and 138
same,Trial 2 Closed Entries,mice; [6],5 and 8 and 7 and 1 and 4
same,Trial 2 Open Entries,mice; [6],3 and 0 and 8 and 2 and 1 and 29
same,Trial 2 Time Open,"mice; elevated plus maze, trial 2, one value per mouse, listed as 197, in s",39.9 and 0 and 56.7 and 15.1 and 0.5 and 14.1 and 49
same,Trial 2 Time Closed,"mice; elevated plus maze, trial 2, one value per mouse, listed as 197, in s (unit assumed)",222.3 and 286.8 and 209.6 and 238 and 264.2 and 277.8 and 208.3
same,Time/Entry AVG,mice; group average,38.3997
same,Platform Distance,TgAPP mice; [7],0 and 0.487 and 0.423 and 1.393 and 0.128 and 0.196 and 0.299 and 0.391
same,Platform Entries,TgAPP mice; [7],0 and 3 and 4 and 8 and 1 and 2
same,Quad Distance,TgAPP mice; [7],2.071 and 3.416 and 4.643 and 7.432 and 1.451 and 3.963 and 3.288 and 3.437 and 3.953
same,Quad Distance/Total,TgAPP mice; [7],0.09759 and 0.2373 and 0.3151 and 0.3933 and 0.09964 and 0.2157 and 0.2602 and 0.2506 and 0.2518
same,Quad Entries,TgAPP mice; [7],3 and 7 and 8 and 16 and 5 and 6 and 4
same,Quad Time,TgAPP mice; [7],9.1 and 12.9 and 22.8 and 25.1 and 6.9 and 11.1 and 16.2 and 14.3 and 14.6
same,Total Distance,TgAPP mice; [7],21.221 and 14.396 and 14.736 and 18.898 and 14.562 and 18.377 and 12.635 and 13.714 and 15.701
same,Platform Latency,"TgAPP mice; MWM Probe, single animal values, listed as 197, in s",60 and 2.1 and 31.3 and 11.1 and 21.2 and 56 and 26.7 and 7.2
same,Platform Time,TgAPP mice; [8],0 and 1.9 and 1.5 and 5.2 and 0.3 and 0.7 and 1 and 1.4
same,Quad Latency,TgAPP mice; [8],4.7 and 3 and 16.9 and 2.3 and 4.3 and 3.9 and 21.1 and 6.8 and 3.2
same,Quad Time per Entry,TgAPP mice; [8],3.033 and 1.843 and 2.85 and 1.569 and 1.38 and 1.85 and 4.05 and 3.575 and 1.825
same,Training Day 1 AVG,"TgAPP mice; MWM training, Day 1, group average",45.4333
same,"Training Day 1, mean of the three trials per animal","TgAPP mice; MWM training, Day 1, per-animal mean, listed as 197",43.78 and 60 and 43.62 and 54.8167 and 46.8067 and 44.7133 and 26.0367 and 29.1267
same,"Training Day 1, trial 1",TgAPP mice; [9],60 and 47.21 and 31.28 and 46.64
same,"Training Day 1, trial 2",TgAPP mice; [9],11.34 and 60 and 54.03 and 25.14 and 29.4
same,"Training Day 1, trial 4",TgAPP mice; [9],60 and 23.65 and 44.45 and 26.39 and 14.14 and 21.69 and 11.34
same,Training Day 2 AVG,"TgAPP mice; MWM training, Day 2, group average",47.2204
same,"Training Day 2, mean of the three trials per animal","TgAPP mice; MWM training, Day 2, per-animal mean, listed as 197",13.1033 and 49.5833 and 60 and 36.82 and 56.3433 and 52.21 and 40.7533 and 56.17
same,"Training Day 2, trial 1",TgAPP mice; [10],7.57 and 60
same,"Training Day 2, trial 2",TgAPP mice; [10],5.62 and 60 and 36.25 and 49.03 and 36.63 and 55.69
same,"Training Day 2, trial 4",TgAPP mice; [10],26.12 and 28.75 and 60 and 14.21 and 6.57 and 48.51
same,Training Day 3 AVG,"TgAPP mice; MWM training, Day 3, group average",28.2515
same,"Training Day 3, mean of the three trials per animal","TgAPP mice; MWM training, Day 3, per-animal mean, listed as 197",11.39 and 34.5433 and 18.6367 and 42.7367 and 27.2267 and 23.27 and 38.7467 and 28.4767 and 29.2367
same,"Training Day 3, trial 1",TgAPP mice; [11],9.97 and 10.56 and 13.44 and 8.21 and 13.9 and 27.12 and 60 and 23.21 and 11.51
same,"Training Day 3, trial 2",TgAPP mice; [11],6.2 and 40.75 and 11.22 and 60 and 7.78 and 16.82 and 30.27 and 28.53 and 34.18
same,"Training Day 3, trial 4",TgAPP mice; [11],18 and 52.32 and 31.25 and 60 and 25.87 and 25.97 and 33.69 and 42.02
same,Trial 1 D4 AVG,"TgAPP mice; MWM training, Day 4, Trial 1, group average",16.0867
same,Trial 1 D4,"TgAPP mice; MWM training, Day 4, Trial 1, single animal values listed by group, listed as 197",29.9 and 18.58 and 17.08 and 9.97 and 12.28 and 11 and 6.82 and 20 and 19.15
same,Training Day 4 AVG,"TgAPP mice; MWM training, Day 4, group average",27.9559
same,"Training Day 4, mean of the three trials per animal","TgAPP mice; MWM training, Day 4, per-animal mean, listed as 197",18.2367 and 14.52 and 22.8833 and 26.0267 and 20.9367 and 33.48 and 29.6433 and 39.9233 and 45.9533
same,"Training Day 4, trial 1",TgAPP mice; [12],33 and 13.59 and 44.97 and 60 and 41.71 and 20.44 and 36.65
same,"Training Day 4, trial 2",TgAPP mice; [12],17.08 and 9.97 and 12.28 and 11 and 6.82 and 20 and 19.15 and 29.9 and 18.58
same,"Training Day 4, trial 4",TgAPP mice; [12],4.63 and 20 and 11.4 and 7.08 and 14.28 and 60 and 9.78 and 53.22 and 59.28
same,Morris water maze training trials: time to locate the platform,"TgAPP mice; TgAPP mice, BK40143 5 mg/kg, BK40197 45 mg/kg IP, 6 wk, vs DMSO",locate the platform significantly quicker on later training trials
